Patent publication US20260297060A1, “COMPOUNDS FOR THE DEGRADATION OF MUTANT BRAF” (C4 THERAPEUTICS, INC., priority 2023, published 2026)
Read-outs that look alike come from different tables or passages of the source.

Assays:
BRAF V600E = target: T1, BRAF V600E (Homo sapiens, UniProt P15056+Q96SW2, V600E); test: BRAF V600E HiBiT Degradation Assay; type: cell-based
T1 construct: knock-in of the HiBiT tag to the endogenous BRAF V600E locus; host or cells: A375.10 (A375 clonal line, CRISPR HiBiT knock-in at the endogenous BRAF V600E locus)
T1 sequence (P15056 whole entry V600E): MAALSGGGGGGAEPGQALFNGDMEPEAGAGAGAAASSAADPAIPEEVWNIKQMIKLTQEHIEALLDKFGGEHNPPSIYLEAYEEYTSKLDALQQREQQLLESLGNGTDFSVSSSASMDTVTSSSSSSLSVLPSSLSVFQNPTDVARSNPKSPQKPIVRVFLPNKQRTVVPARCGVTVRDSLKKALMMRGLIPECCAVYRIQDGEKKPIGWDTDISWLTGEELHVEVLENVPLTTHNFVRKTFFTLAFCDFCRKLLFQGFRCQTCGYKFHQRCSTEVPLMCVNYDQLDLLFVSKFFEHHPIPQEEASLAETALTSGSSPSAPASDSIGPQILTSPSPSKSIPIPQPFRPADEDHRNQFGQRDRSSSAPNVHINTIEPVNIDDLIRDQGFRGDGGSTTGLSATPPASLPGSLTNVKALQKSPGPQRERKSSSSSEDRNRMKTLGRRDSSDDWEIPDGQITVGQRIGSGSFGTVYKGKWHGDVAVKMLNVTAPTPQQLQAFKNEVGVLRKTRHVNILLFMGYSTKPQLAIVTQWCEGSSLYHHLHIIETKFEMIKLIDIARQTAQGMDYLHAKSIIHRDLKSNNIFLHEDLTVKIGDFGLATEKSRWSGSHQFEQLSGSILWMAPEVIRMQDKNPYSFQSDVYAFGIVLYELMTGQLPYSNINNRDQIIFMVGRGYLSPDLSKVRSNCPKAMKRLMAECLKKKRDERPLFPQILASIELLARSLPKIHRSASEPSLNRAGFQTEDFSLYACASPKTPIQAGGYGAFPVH
T1 sequence (Q96SW2 whole entry): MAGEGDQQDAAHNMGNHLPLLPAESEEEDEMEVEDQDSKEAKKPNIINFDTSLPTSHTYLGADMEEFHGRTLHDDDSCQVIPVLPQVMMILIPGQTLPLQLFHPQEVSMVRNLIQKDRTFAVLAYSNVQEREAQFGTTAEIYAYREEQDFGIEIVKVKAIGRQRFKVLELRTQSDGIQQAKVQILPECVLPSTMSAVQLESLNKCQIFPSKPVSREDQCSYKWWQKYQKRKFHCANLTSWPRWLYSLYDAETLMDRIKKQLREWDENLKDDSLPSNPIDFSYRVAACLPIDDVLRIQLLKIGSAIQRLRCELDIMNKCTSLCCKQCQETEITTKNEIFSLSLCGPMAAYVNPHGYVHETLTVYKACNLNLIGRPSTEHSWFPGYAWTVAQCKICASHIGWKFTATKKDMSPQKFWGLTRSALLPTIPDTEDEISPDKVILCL
T1 sequence (Q16531 whole entry partner): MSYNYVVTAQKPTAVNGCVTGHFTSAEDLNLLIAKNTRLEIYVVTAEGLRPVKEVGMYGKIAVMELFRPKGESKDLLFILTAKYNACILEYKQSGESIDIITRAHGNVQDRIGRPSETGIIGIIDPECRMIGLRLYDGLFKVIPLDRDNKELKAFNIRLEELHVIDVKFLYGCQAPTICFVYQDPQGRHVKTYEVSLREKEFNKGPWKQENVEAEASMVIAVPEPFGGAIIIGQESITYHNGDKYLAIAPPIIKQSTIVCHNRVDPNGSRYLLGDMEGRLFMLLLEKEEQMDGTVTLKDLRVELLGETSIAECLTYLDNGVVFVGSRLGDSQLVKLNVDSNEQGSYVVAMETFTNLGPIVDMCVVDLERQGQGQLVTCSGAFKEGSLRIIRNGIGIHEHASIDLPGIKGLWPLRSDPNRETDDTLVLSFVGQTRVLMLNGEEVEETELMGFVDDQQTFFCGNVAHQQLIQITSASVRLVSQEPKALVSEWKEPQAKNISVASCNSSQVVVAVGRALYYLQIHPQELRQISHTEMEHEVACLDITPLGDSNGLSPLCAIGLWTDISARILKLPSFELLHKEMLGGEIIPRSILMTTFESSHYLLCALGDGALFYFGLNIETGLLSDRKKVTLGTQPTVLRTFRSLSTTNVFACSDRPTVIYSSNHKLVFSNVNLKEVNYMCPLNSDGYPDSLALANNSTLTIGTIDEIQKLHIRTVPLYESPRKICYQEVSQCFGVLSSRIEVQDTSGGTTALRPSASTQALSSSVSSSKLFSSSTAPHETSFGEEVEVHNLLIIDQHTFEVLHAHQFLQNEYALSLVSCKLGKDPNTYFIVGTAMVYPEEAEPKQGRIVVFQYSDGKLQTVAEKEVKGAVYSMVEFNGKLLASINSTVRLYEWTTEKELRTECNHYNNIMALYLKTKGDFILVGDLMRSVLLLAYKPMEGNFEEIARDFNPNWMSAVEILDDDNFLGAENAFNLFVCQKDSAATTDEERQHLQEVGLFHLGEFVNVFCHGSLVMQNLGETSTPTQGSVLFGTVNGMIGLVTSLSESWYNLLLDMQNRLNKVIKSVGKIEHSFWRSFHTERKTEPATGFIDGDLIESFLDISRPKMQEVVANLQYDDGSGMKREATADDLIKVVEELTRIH
Summary of the method: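 Endogenous HiBiT knock-in on BRAF V600E in A375 cells (clone A375.10); 11-point half-log series, top 10 μM, 2, 6 or 24 h at 37° C. Lytic HiBiT luminescence, background-subtracted, normalized to DMSO; 4-parameter fit gives DC50, Emax (residual protein) and IP (inflection point).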

A375-NRAS^Q61K cells = test: CTGlo Cell Viability Assay, A375-NRAS^Q61K (A375.11) cells, 96 hours; type: cell-based, human; conditions: Homo sapiens, 96 h, A375.11 (A375-NRAS^Q61K) cells; for Emax: lowest % viability achieved
Summary of the method: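 A375 cells carrying BRAF V600E and NRAS Q61K were seeded at 250 cells/well with a 10-point half-log dose series (max 10 μM final). After 96 h at 37 °C, viability was read as ATP luminescence (CellTiter-Glo), background-subtracted and normalized to DMSO (100%). GI50 from 4-parameter fit; Emax is the lowest % viability.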

[1] = A375.10 cells, BRAF V600E, 2 hours; inflection point; read-out: HiBiT-Degradation A375.10 BRAF 2 hours IP
[2] = A375.10 cells, BRAF V600E, 2 hours; read-out: HiBiT-Degradation A375.10 BRAF 2 hours DC50
[3] = A375.10 cells, BRAF V600E, 2 hours; residual protein remaining; read-out: HiBiT-Degradation A375.10 BRAF 2 hours Emax
[4] = read-out: HiBiT-Degradation A375.10 BRAF 2 hours DC50; A375.10 cells, BRAF V600E, 2 hours
[5] = read-out: HiBiT-Degradation A375.10 BRAF 2 hours IP; A375.10 cells, BRAF V600E, 2 hours; inflection point

DC50 (BRAF V600E; [1]) [nM]	DC50 (BRAF V600E; [2]) [nM]	Emax (BRAF V600E; [3]) [%]	GI50 (A375-NRAS^Q61K cells) [nM]	DC50 (BRAF V600E; [4]) [nM]	DC50 (BRAF V600E; [5]) [nM]	SMILES	Emax (A375-NRAS^Q61K cells) [%]
< 1000	< 1000	< 50	1000 to 10000	–	–	Cn1nc(N2CCC(=O)NC2=O)c2cc(F)c(N3CC4(CC(N5CCC6(CC5)C[C@@H](n5cnc7ccc(Oc8c(F)ccc(NS(=O)(=O)N9C[C@H]%10C[C@H]%10C9)c8C#N)cc7c5=O)CO6)C4)C3)cc21 [Compound 241, (1S,5R)-N-[2-cyano-3-[3-[(3R)-8-[2-[3-(2,4-dioxohexahydropyrimidin-1-yl)-5-fluoro-1-methyl-indazol-6-yl]-2-azaspiro[3.3]heptan-6-yl]-1-oxa-8-azaspiro[4.5]decan-3-yl]-4-oxo-quinazolin-6-yl]oxy-4-fluoro-phenyl]-3-azabicyclo[3.1.0]hexane-3-sulfonamide]	50 to 90
< 1000	1000 to 10000	50 to 90	> 10000	–	–	Cn1nc(N2CCC(=O)NC2=O)c2cc(F)c(N3CC4(CC(N5CCC6(CC5)C[C@@H](n5cnc7ccc(Oc8c(F)ccc(NS(=O)(=O)N9CCOCC9)c8C#N)cc7c5=O)CO6)C4)C3)cc21 [Compound 242, N-[2-cyano-3-[3-[(3R)-8-[2-[3-(2,4-dioxohexahydropyrimidin-1-yl)-5-fluoro-1-methyl-indazol-6-yl]-2-azaspiro[3.3]heptan-6-yl]-1-oxa-8-azaspiro[4.5]decan-3-yl]-4-oxo-quinazolin-6-yl]oxy-4-fluoro-phenyl]morpholine-4-sulfonamide]	50 to 90
–	–	50 to 90	< 1000	< 1000	< 1000	Cn1nc(N2CCC(=O)NC2=O)c2cc(F)c(N3CC4(CC(N5CCC6(CC5)C[C@@H](n5cnc7ccc(Oc8c(F)ccc(NS(=O)(=O)N9CCC%10(CC%10)C9)c8C#N)cc7c5=O)CO6)C4)C3)cc21 [Compound 245, N-[2-cyano-3-[3-[(3R)-8-[2-[3-(2,4-dioxohexahydropyrimidin-1-yl)-5-fluoro-1-methyl-indazol-6-yl]-2-azaspiro[3.3]heptan-6-yl]-1-oxa-8-azaspiro[4.5]decan-3-yl]-4-oxo-quinazolin-6-yl]oxy-4-fluoro-phenyl]-5-azaspiro[2.4]heptane-5-sulfonamide]	50 to 90
–	–	< 50	1000 to 10000	< 1000	< 1000	CC(C)S(=O)(=O)Nc1ccc(F)c(Oc2ccc3ncc(C4CC5(CCN(C6CC7(C6)CN(c6cc8c(cc6F)c(N6CCC(=O)NC6=O)nn8C)C7)CC5)C4)nc3c2)c1C#N (centres unmarked) [Compound 247, N-[2-cyano-3-[3-[7-[2-[3-(2,4-dioxohexahydropyrimidin-1-yl)-5-fluoro-1-methyl-indazol-6-yl]-2-azaspiro[3.3]heptan-6-yl]-7-azaspiro[3.5]nonan-2-yl]quinoxalin-6-yl]oxy-4-fluoro-phenyl]propane-2-sulfonamide]	50 to 90
< 1000	< 1000	50 to 90	1000 to 10000	–	–	CCN(C)S(=O)(=O)Nc1ccc(F)c(Oc2ccc3ncn([C@H]4COC5(CCN(CC6CCN(c7cc8c(cc7F)c(N7CCC(=O)NC7=O)nn8C)CC6)CC5)C4)c(=O)c3c2)c1C#N [Compound 251, (3R)-3-[6-[2-cyano-3-[[ethyl(methyl)sulfamoyl]amino]-6-fluoro-phenoxy]-4-oxo-quinazolin-3-yl]-8-[[1-[3-(2,4-dioxohexahydropyrimidin-1-yl)-5-fluoro-1-methyl-indazol-6-yl]-4-piperidyl]methyl]-1-oxa-8-azaspiro[4.5]decane]	50 to 90
< 1000	> 10000	50 to 90	> 10000	–	–	Cn1nc(N2CCC(=O)NC2=O)c2cc(F)c(N3CC4(CC(N5CCC6(CC5)C[C@@H](n5cnc7ccc(Oc8c(F)ccc(NS(=O)(=O)C9CCOCC9)c8C#N)cc7c5=O)CO6)C4)C3)cc21 [Compound 252, N-[2-cyano-3-[3-[(3R)-8-[2-[3-(2,4-dioxohexahydropyrimidin-1-yl)-5-fluoro-1-methyl-indazol-6-yl]-2-azaspiro[3.3]heptan-6-yl]-1-oxa-8-azaspiro[4.5]decan-3-yl]-4-oxo-quinazolin-6-yl]oxy-4-fluoro-phenyl]tetrahydropyran-4-sulfonamide]	50 to 90
< 1000	> 10000	50 to 90	1000 to 10000	–	–	CCN(C)S(=O)(=O)Nc1ccc(F)c(Oc2ccc3ncn(C4CC5(CCN(C6CCN(c7cc8c(cc7F)c(N7CCC(=O)NC7=O)nn8C)CC6(F)F)CC5)C4)c(=O)c3c2)c1C#N (centres unmarked) [Compound 253, 6-[2-cyano-3-[[ethyl(methyl)sulfamoyl]amino]-6-fluoro-phenoxy]-3-[7-[1-[3-(2,4-dioxohexahydropyrimidin-1-yl)-5-fluoro-1-methyl-indazol-6-yl]-3,3-difluoro-4-piperidyl]-7-azaspiro[3.5]nonan-2-yl]-4-oxo-quinazoline]	< 50
< 1000	< 1000	50 to 90	> 10000	–	–	CCN(C)S(=O)(=O)Nc1ccc(F)c(Oc2ccc3ncn(C4CC5(CCN(CC6CCN(c7cc8c(cc7F)c(N7CCC(=O)NC7=O)nn8C)CC6)CC5)C4)c(=O)c3c2)c1C#N [Compound 255, 6-[2-cyano-3-[[ethyl(methyl)sulfamoyl]amino]-6-fluoro-phenoxy]-3-[7-[[1-[3-(2,4-dioxohexahydropyrimidin-1-yl)-5-fluoro-1-methyl-indazol-6-yl]-4-piperidyl]methyl]-7-azaspiro[3.5]nonan-2-yl]-4-oxo-quinazoline]	50 to 90
< 1000	< 1000	< 50	< 1000	–	–	CCN(C)S(=O)(=O)Nc1ccc(F)c(Oc2ccc3ncc(C4CC5(CCN(C6CCN(c7cc8c(cc7F)c(N7CCC(=O)NC7=O)nn8C)CC6)CC5)C4)nc3c2)c1C#N [Compound 256, 7-[2-cyano-3-[[ethyl(methyl)sulfamoyl]amino]-6-fluoro-phenoxy]-2-[7-[1-[3-(2,4-dioxohexahydropyrimidin-1-yl)-5-fluoro-1-methyl-indazol-6-yl]-4-piperidyl]-7-azaspiro[3.5]nonan-2-yl]quinoxaline]	50 to 90
< 1000	1000 to 10000	50 to 90	> 10000	–	–	CCN(C)S(=O)(=O)Nc1ccc(F)c(Oc2ccc3ncn(CC4CCN(C5CC6(C5)CN(c5cc7c(cc5F)c(N5CCC(=O)NC5=O)nn7C)C6)CC4)c(=O)c3c2)c1C#N [Compound 258, 6-[2-cyano-3-[[ethyl(methyl)sulfamoyl]amino]-6-fluoro-phenoxy]-3-[[1-[2-[3-(2,4-dioxohexahydropyrimidin-1-yl)-5-fluoro-1-methyl-indazol-6-yl]-2-azaspiro[3.3]heptan-6-yl]-4-piperidyl]methyl]-4-oxo-quinazoline]	50 to 90
< 1000	< 1000	< 50	< 1000	–	–	Cn1nc(N2CCC(=O)NC2=O)c2cc(F)c(N3CC4(CC(N5CCC6(CC5)CC(n5cnc7ccc(Oc8c(F)ccc(NS(=O)(=O)N9CCOCC9)c8C#N)cc7c5=O)C6)C4)C3)cc21 [Compound 262, N-[2-cyano-3-[3-[7-[2-[3-(2,4-dioxohexahydropyrimidin-1-yl)-5-fluoro-1-methyl-indazol-6-yl]-2-azaspiro[3.3]heptan-6-yl]-7-azaspiro[3.5]nonan-2-yl]-4-oxo-quinazolin-6-yl]oxy-4-fluoro-phenyl]morpholine-4-sulfonamide]	50 to 90
–	–	< 50	> 10000	< 1000	< 1000	Cn1nc(N2CCC(=O)NC2=O)c2cc(F)c(N3CC4(CC(N5CCC6(CC5)CC(n5cnc7ccc(Oc8c(F)ccc(NS(=O)(=O)C9CCOCC9)c8C#N)cc7c5=O)C6)C4)C3)cc21 [Compound 263, N-[2-cyano-3-[3-[7-[2-[3-(2,4-dioxohexahydropyrimidin-1-yl)-5-fluoro-1-methyl-indazol-6-yl]-2-azaspiro[3.3]heptan-6-yl]-7-azaspiro[3.5]nonan-2-yl]-4-oxo-quinazolin-6-yl]oxy-4-fluoro-phenyl]tetrahydropyran-4-sulfonamide]	50 to 90
< 1000	< 1000	< 50	1000 to 10000	–	–	CCN(C)S(=O)(=O)Nc1ccc(F)c(Oc2ccc3ncn(CC4CCN(C5CCN(c6cc7c(cc6F)c(N6CCC(=O)NC6=O)nn7C)CC5)CC4)c(=O)c3c2)c1C#N [Compound 264, 6-[2-cyano-3-[[ethyl(methyl)sulfamoyl]amino]-6-fluoro-phenoxy]-3-[[1-[1-[3-(2,4-dioxohexahydropyrimidin-1-yl)-5-fluoro-1-methyl-indazol-6-yl]-4-piperidyl]-4-piperidyl]methyl]-4-oxo-quinazoline]	50 to 90
